According to patent publication US9623025B2 (priority 2009, dated 2017):

Biological target: hCA IX (Homo sapiens, UniProt Q16790)
Assay: biochemical

Cc1cn(-c2cc(NC(=O)c3ccc(C)c(Nc4nccc(-c5cccnc5)n4)c3)cc(C(F)(F)F)c2)cn1 [Nilotinib, 4-methyl-3-[[4-(3-pyridinyl)-2-pyrimidinyl]amino]-N-[5-(4-methyl-1H-imidazol-1-yl)-3-(trifluoromethyl)phenyl] benzamide]
Ki: 41.9 to 75.7 nM
